In data set [1] the test system is smooth muscle. The note with it: from prior patents; cited from earlier work.
In data set [2] the test system is muscarinic receptors. The note with it: from prior publications and patents; cited from earlier work.
The test system of data set [3] is QTc interval. Put plainly: Effects on the QT-interval of the ECG. The note with it: guinea pig, in vivo. The arrangement: species or system guinea pigs. The method, then: Anesthetized male guinea pigs (450–600 g) are used. The trachea is cannulated. Lead II electrocardiogram are recorded at 50 mm/sec. The is a 30 minute stabilization time after surgery, during which three baseline EKG recordings are made at 10-min intervals. Test article or vehicle are administered as an iv infusion over 30 min. ECG recordings are used to determine QT intervals and heart rates. To compensate for variations in heart rates, QTc intervals are calculated from QT- and RR-intervals as known to those skilled in the art. Prolongation of QTc is indicative of a prolonged action potential. Prolongation of QTc is a known cause of Torsades de Pointes ventricular fibrillation by drugs such as terodiline, terfenadine and astemizole (all of which have been withdrawn because of arrhythmogenic side effect).

Data set [4] deals with bladder hyperactivity. The note with it: cited from earlier work.

SMILES strings stand for the structures.

Consider `Cc1ccc(O)c(C(CCNC(C)C)c2ccccc2)c1` (centres unmarked) [DES-TOL], for which the non-cholinergic spasmolytic activities result in data set [1] is on record as “express non-cholinergic spasmolytic activities”. In data set [2], the “anticholinergic activity / inhibition of muscarinic receptors” value (from here on “anticholinergic activity / inhibition”) was “anticholinergic activity was further decreased”.
As for `CC(C)N(CC[C@H](c1ccccc1)c1cc(CO)ccc1O)C(C)C` [Example 5HM], the “anticholinergic activity / inhibition” value in data set [2] is “potent and non-selective inhibition of muscarinic receptors”.
On to `Cc1ccc(O)c([C@@H](CCN(C(C)C)C(C)C)c2ccccc2)c1` [S-TOL], for which the non-cholinergic spasmolytic activities entry in data set [1] is given as “express non-cholinergic spasmolytic activities”. In data set [2], the “anticholinergic activity / inhibition” value is recorded as “little anticholinergic activity”.
`Cc1ccc(O)c([C@H](CCN(C(C)C)C(C)C)c2ccccc2)c1` [Tolterodine, R—N,N-diisopropyl-3-(2-hydroxy-5-methylphenyl)-3-phenylpropylamine]: in data set [2], the “anticholinergic activity / inhibition” value is “potent and non-selective inhibition of muscarinic receptors”. The “delay of cardiac repolarization (prolongation of the QTc interval of the ECG)” value in data set [3] is recorded as “potently prolongs the QTc interval”. In addition, the “bladder hyperactivity in patients suffering from urinary incontinence” value in data set [4] was “reduce bladder hyperactivity”.

Values taken from patent US7141696B2, “Smooth muscle spasmolytic agents” (Bridge Pharma, Inc., priority 2003, dated 2006).
